Legend:
[1] = test system: NO production by RAW264.7 cell; test: NO production-inhibiting effect in RAW264.7 cells stimulated with LPS and interferon-gamma; format: cell-based, mouse; settings: LPS 5 ng/ml + interferon-gamma 1 U/ml, nitrite ion in culture supernatant, compounds 1 and 3: minimum and maximum of 7 and 9 tests
Experimental: Mouse macrophage cell line RAW264.7 was used as an iNOS-inducible cell and a test compound was examined for its % inhibition of NO production. The test compound was dissolved at the concentration of 10 mM in N,N-dimethylformamide and diluted with an RPMI-1640 medium at the concentration of 0.1 mM. The concentration was further adjusted using the medium, so that a final concentration ranging from 10 μM to 10 nM could be obtained by a 10-fold serial dilution, and the test compound was added to a culture medium. […] at 5×10^5/ml with 10% inactivated fetal calf serum in an RPMI-1640 medium and inoculated to a 96-well plate at 1×10^5 cells/0.2 ml per well. After incubating at 37° C. under an atmosphere of 5% CO2/95% air overnight, the test compound adjusted as described above was added and then LPS and interferon-gamma were added at the final concentrations of 5 ng/ml and 1 U/ml, respectively. […] The nitrite ion concentration was determined by adding 25 μl of 20 μg/ml of 2,3-diaminonaphthalene (DAN) to 50 μl of the culture supernatant, followed by incubating at room temperature for 10 minutes, followed by adding 25 μl of 0.5 N NaOH, followed by determining a fluorescence at 450 nm (excitation wavelength: 365 nm). […]

IL-1β = test: Effect on increase of cytokine concentration in blood of LPS-treated mice: IL-1β; format: in vivo, BALB/c mice; settings: 30 mg/kg orally, 1 hour before LPS 10 mg/kg i.p.; serum 6 hours after LPS
Experimental: (§1) As a result of a defense mechanism against an infection and the like or an immune abnormality, various cytokines are produced in vivo. Accordingly, an experimental animal was used to examine the effect of a test compound on the increase cytokine concentration in blood.
(§2) Female BALB/c mice (6 weeks old) were purchased and acclimatized for 1 week and assigned to the groups in each of which 6 to 8 animals were included. In a treatment group, 30 mg/kg of a test compound suspended in a 0.5% aqueous methyl cellulose solution was given orally. In a control group, the vehicle was given similarly. After 1 hour, LPS (10 mg/kg) was given intraperitoneally to each animal in the treatment and control groups, and the blood was taken 1 hour after the LPS administration and examined for concentrations of TNF-α in the serum. IL-1α, IL-1β and IL-6 concentrations were determined using the serum from the blood taken 6 hours after the LPS administration. Each cytokine was determined using an assay kit manufactured by Amersham.

TNF-α = test: Effect on increase of cytokine concentration in blood of LPS-treated mice: TNF-α; format: in vivo, BALB/c mice; settings: 30 mg/kg orally, 1 hour before LPS 10 mg/kg i.p.; serum 1 hour after LPS
Experimental: as §1, §2

IL-6 = test: Effect on increase of cytokine concentration in blood of LPS-treated mice: IL-6; format: in vivo, BALB/c mice; settings: 30 mg/kg orally, 1 hour before LPS 10 mg/kg i.p.; serum 6 hours after LPS
Experimental: as §1, §2

[2] = test system: nitric oxide concentration (NOx) in blood; test: Effect on increase of nitric oxide concentration (NOx) in blood of LPS-treated mice; format: in vivo, BALB/c mice; settings: 30 mg/kg orally, 1 hour before LPS 10 mg/kg i.p.; serum 6 hours after LPS; vs control group
IL-1α = test: Effect on increase of cytokine concentration in blood of LPS-treated mice: IL-1α; format: in vivo, BALB/c mice; settings: 30 mg/kg orally, 1 hour before LPS 10 mg/kg i.p.; serum 6 hours after LPS
Experimental: as §1, §2

`CCOC(=O)C1=CCCCC1S(=O)(=O)Nc1ccc(F)cc1F` (stereo not drawn) [Compound 20, d-ethyl 6-[N-(2,4-difluorophenyl)sulfamoyl]-1-cyclohexene-1-carboxylate] was tested, and the IC50 [1] was 0.005 µM.

Work on `CCOC(=O)C1=CCCCC1S(=O)(=O)Nc1cccc(F)c1` (centres unmarked) [Compound 11, ethyl 6-[N-(3-fluorophenyl)sulfamoyl]-1-cyclohexene-1-carboxylate] yielded an IC50 ([1]; Mus musculus) of 0.31 µM.

`CCOC(=O)C1=CCCCC1S(=O)(=O)Nc1ccc(Cl)cc1F` (centres unmarked) [Compound 1, ethyl 6-[N-(4-chloro-2-fluorophenyl)sulfamoyl]-1-cyclohexene-1-carboxylate] was tested, and the “cytokine inhibition (%) in blood IL-1β” value (IL-1β) was 73%, the “cytokine inhibition (%) in blood TNF-α” value (TNF-α) was 98% and the “cytokine inhibition (%) in blood IL-6” value (IL-6) was 89%. The “NOx inhibition (%) in blood” value [2] was 76% and the “cytokine inhibition (%) in blood IL-1α” value (IL-1α) was 97%.

In the case of `CCOC(=O)C1=CCCCC1S(=O)(=O)Nc1ccc(F)cc1F` (centres unmarked) [Compound 3, ethyl 6-[N-(2,4-difluorophenyl)sulfamoyl]-1-cyclohexene-1-carboxylate], the “NOx inhibition (%) in blood” value [2] is reported as 90%.
